Source: patent US20240190874A1, “SMALL MOLECULE DEGRADERS OF ANDROGEN RECEPTOR” (THE REGENTS OF THE UNIVERSITY OF MICHIGAN, priority 2021, published 2024)
pIC50: −log10 of the molar value.

Target: T1, AR (Homo sapiens, UniProt P10275)
T1 construct: Degradation of AR; Cellular potency; host or cells: VCaP cells
T1 sequence (P10275 1-920): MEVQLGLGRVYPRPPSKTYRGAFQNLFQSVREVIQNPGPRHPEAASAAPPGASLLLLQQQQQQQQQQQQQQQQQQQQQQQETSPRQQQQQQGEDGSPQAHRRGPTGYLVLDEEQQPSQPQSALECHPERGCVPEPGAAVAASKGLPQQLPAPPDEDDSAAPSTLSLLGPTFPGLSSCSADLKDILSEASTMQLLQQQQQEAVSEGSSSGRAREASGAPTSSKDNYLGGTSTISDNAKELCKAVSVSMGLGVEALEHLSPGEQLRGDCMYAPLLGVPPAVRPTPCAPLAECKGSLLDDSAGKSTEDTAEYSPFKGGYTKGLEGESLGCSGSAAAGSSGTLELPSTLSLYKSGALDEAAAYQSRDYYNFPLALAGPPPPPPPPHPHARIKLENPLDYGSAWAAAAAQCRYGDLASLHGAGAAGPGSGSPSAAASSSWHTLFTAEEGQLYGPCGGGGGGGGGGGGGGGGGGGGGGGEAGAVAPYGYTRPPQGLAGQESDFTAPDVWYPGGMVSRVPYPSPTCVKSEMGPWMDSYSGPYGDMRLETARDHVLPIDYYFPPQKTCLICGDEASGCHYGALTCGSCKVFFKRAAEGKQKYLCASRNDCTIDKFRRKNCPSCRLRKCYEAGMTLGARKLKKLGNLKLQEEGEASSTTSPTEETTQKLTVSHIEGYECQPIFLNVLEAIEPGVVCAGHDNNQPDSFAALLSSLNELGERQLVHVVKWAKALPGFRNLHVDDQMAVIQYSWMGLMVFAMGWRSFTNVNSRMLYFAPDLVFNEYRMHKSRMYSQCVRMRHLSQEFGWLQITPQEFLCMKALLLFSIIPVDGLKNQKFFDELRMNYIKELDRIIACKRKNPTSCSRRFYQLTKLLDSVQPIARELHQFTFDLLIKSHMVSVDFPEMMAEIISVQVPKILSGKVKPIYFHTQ
Test: Degradation of AR in VCaP cells
Format: cell-based
Settings: VCaP cells
Experimental: (§1) Biological Assays. LNCaP and VCaP cells used were purchased from American Type Culture Collection (ATCC). LNCaP were grown in RPMI 1640 (Invitrogen) and VCaP cells were grown in DMEM with Glutamax (Invitrogen). All of the cells were supplemented with 10% fetal bovine serum (Invitrogen) at 37° C. in a humidified 5% CO2 incubator.

Row | Structure (SMILES) | DC50 [nM]
1 | C[C@H]1CC2(CCN(c3ccc(C(=O)N4CCC(CN5CCOc6cc7c(cc6C5)C(=O)N(C5CCC(=O)NC5=O)C7=O)CC4)cc3)CC2)CN1c1ccc(C#N)c(Cl)c1 (stereo partly drawn) [compound 195] | < 10
2 | C[C@H]1CC2(CCN(c3ccc(CC4CCN(C5CN(c6ccc7c(c6)C(=O)N(C6CCC(=O)NC6=O)C7=O)C5)CC4)cn3)CC2)CN1c1ccc(C#N)c(Cl)c1 (stereo partly drawn) [compound 196] | < 1
3 | C[C@H]1CC2(CCN(c3ccc(CC4CCN(C5CN(c6ccc7c(c6)C(=O)N(C6CCC(=O)NC6=O)C7=O)C5)CC4)nc3)CC2)CN1c1ccc(C#N)c(Cl)c1 (stereo partly drawn) [compound 197] | < 1
4 | C[C@H]1CC2(CCN(c3ccc(CC4CCN(C5CN(c6ccc7c(c6)C(=O)N(C6CCC(=O)NC6=O)C7=O)C5)CC4)nn3)CC2)CN1c1ccc(C#N)c(Cl)c1 (stereo partly drawn) [compound 198] | < 10
5 | C[C@H]1CC2(CCN(c3ccc(CN4CCC(N5CCN(c6ccc7c(c6)C(=O)N(C6CCC(=O)NC6=O)C7=O)CC5)CC4)nn3)CC2)CN1c1ccc(C#N)c(Cl)c1 (stereo partly drawn) [compound 202] | < 1
6 | C[C@H]1CC2(CCN(c3ccc(CN4CCC(N5CCN(c6cc7c(cc6F)C(=O)N(C6CCC(=O)NC6=O)C7=O)CC5)CC4)nn3)CC2)CN1c1ccc(C#N)c(Cl)c1 (stereo partly drawn) [compound 203] | < 1
7 | C[C@H]1CC2(CCN(c3ccc(CN4CC(N5CCN(c6ccc7c(c6)C(=O)N(C6CCC(=O)NC6=O)C7=O)CC5)C4)cn3)CC2)CN1c1ccc(C#N)c(Cl)c1 (stereo partly drawn) [compound 204] | < 1
8 | C[C@H]1CC2(CCN(c3ccc(CN4CC(N5CCN(c6cc7c(cc6F)C(=O)N(C6CCC(=O)NC6=O)C7=O)CC5)C4)cn3)CC2)CN1c1ccc(C#N)c(Cl)c1 (stereo partly drawn) [compound 205] | < 1

Test system: LNCaP cells
Test: Cellular potency (IC50) in LNCaP cells
Format: cell-based
Settings: Homo sapiens, LNCaP
Experimental: as §1

Row | Structure (SMILES) | pIC50
9 | C[C@H]1CC2(CCN(c3ccc(C(=O)N4CCC(CN5CCOc6cc7c(cc6C5)C(=O)N(C5CCC(=O)NC5=O)C7=O)CC4)cc3)CC2)CN1c1ccc(C#N)c(Cl)c1 (stereo partly drawn) [compound 195] | > 8.00
10 | C[C@H]1CC2(CCN(c3ccc(CC4CCN(C5CN(c6ccc7c(c6)C(=O)N(C6CCC(=O)NC6=O)C7=O)C5)CC4)cn3)CC2)CN1c1ccc(C#N)c(Cl)c1 (stereo partly drawn) [compound 196] | > 8.00
11 | C[C@H]1CC2(CCN(c3ccc(CC4CCN(C5CN(c6ccc7c(c6)C(=O)N(C6CCC(=O)NC6=O)C7=O)C5)CC4)nc3)CC2)CN1c1ccc(C#N)c(Cl)c1 (stereo partly drawn) [compound 197] | > 8.00
12 | C[C@H]1CC2(CCN(c3ccc(CC4CCN(C5CN(c6ccc7c(c6)C(=O)N(C6CCC(=O)NC6=O)C7=O)C5)CC4)nn3)CC2)CN1c1ccc(C#N)c(Cl)c1 (stereo partly drawn) [compound 198] | > 8.00
13 | C[C@H]1CC2(CCN(c3ccc(CN4CCC(N5CCN(c6ccc7c(c6)C(=O)N(C6CCC(=O)NC6=O)C7=O)CC5)CC4)nn3)CC2)CN1c1ccc(C#N)c(Cl)c1 (stereo partly drawn) [compound 202] | > 8.00
14 | C[C@H]1CC2(CCN(c3ccc(CN4CCC(N5CCN(c6cc7c(cc6F)C(=O)N(C6CCC(=O)NC6=O)C7=O)CC5)CC4)nn3)CC2)CN1c1ccc(C#N)c(Cl)c1 (stereo partly drawn) [compound 203] | > 8.00
15 | C[C@H]1CC2(CCN(c3ccc(CN4CC(N5CCN(c6ccc7c(c6)C(=O)N(C6CCC(=O)NC6=O)C7=O)CC5)C4)cn3)CC2)CN1c1ccc(C#N)c(Cl)c1 (stereo partly drawn) [compound 204] | > 8.00
16 | C[C@H]1CC2(CCN(c3ccc(CN4CC(N5CCN(c6cc7c(cc6F)C(=O)N(C6CCC(=O)NC6=O)C7=O)CC5)C4)cn3)CC2)CN1c1ccc(C#N)c(Cl)c1 (stereo partly drawn) [compound 205] | > 8.00

Test system: VCaP cells
Test: Cellular potency (IC50) in VCaP cells
Format: cell-based
Settings: Homo sapiens, VCaP
Experimental: as §1

Row | Structure (SMILES) | pIC50
17 | C[C@H]1CC2(CCN(c3ccc(C(=O)N4CCC(CN5CCOc6cc7c(cc6C5)C(=O)N(C5CCC(=O)NC5=O)C7=O)CC4)cc3)CC2)CN1c1ccc(C#N)c(Cl)c1 (stereo partly drawn) [compound 195] | > 7.00
18 | C[C@H]1CC2(CCN(c3ccc(CC4CCN(C5CN(c6ccc7c(c6)C(=O)N(C6CCC(=O)NC6=O)C7=O)C5)CC4)cn3)CC2)CN1c1ccc(C#N)c(Cl)c1 (stereo partly drawn) [compound 196] | > 7.00
19 | C[C@H]1CC2(CCN(c3ccc(CC4CCN(C5CN(c6ccc7c(c6)C(=O)N(C6CCC(=O)NC6=O)C7=O)C5)CC4)nc3)CC2)CN1c1ccc(C#N)c(Cl)c1 (stereo partly drawn) [compound 197] | > 8.00
20 | C[C@H]1CC2(CCN(c3ccc(CC4CCN(C5CN(c6ccc7c(c6)C(=O)N(C6CCC(=O)NC6=O)C7=O)C5)CC4)nn3)CC2)CN1c1ccc(C#N)c(Cl)c1 (stereo partly drawn) [compound 198] | > 8.00
21 | C[C@H]1CC2(CCN(c3ccc(CN4CCC(N5CCN(c6ccc7c(c6)C(=O)N(C6CCC(=O)NC6=O)C7=O)CC5)CC4)nn3)CC2)CN1c1ccc(C#N)c(Cl)c1 (stereo partly drawn) [compound 202] | > 8.00
22 | C[C@H]1CC2(CCN(c3ccc(CN4CCC(N5CCN(c6cc7c(cc6F)C(=O)N(C6CCC(=O)NC6=O)C7=O)CC5)CC4)nn3)CC2)CN1c1ccc(C#N)c(Cl)c1 (stereo partly drawn) [compound 203] | > 8.00
23 | C[C@H]1CC2(CCN(c3ccc(CN4CC(N5CCN(c6ccc7c(c6)C(=O)N(C6CCC(=O)NC6=O)C7=O)CC5)C4)cn3)CC2)CN1c1ccc(C#N)c(Cl)c1 (stereo partly drawn) [compound 204] | > 8.00
24 | C[C@H]1CC2(CCN(c3ccc(CN4CC(N5CCN(c6cc7c(cc6F)C(=O)N(C6CCC(=O)NC6=O)C7=O)CC5)C4)cn3)CC2)CN1c1ccc(C#N)c(Cl)c1 (stereo partly drawn) [compound 205] | > 8.00
